# Measurements as given in patent US11717508B2, “Compounds, compositions, and methods for inhibiting bacterial growth” (priority 2016, dated 2023).
# “And” between values parts separate entries of the source, which are not always exact repeats. Equal entries are not always repeated. Where two headings read alike, the source gives them in different places.
# Tested on: DosRST regulon
# Format: cell-based
# Conditions: for Counts per million (CPM) WT_HC103A: replicates 1, 2
compound,measurement,setting,value
"O=C(Nc1cccc(O)c1)c1cccc(NC(=O)c2cccs2)c1 [HC103A, N-[3-[(3 hydroxyphenyl)carbamoyl]phenyl]thiophene-2-carboxamide]",WT DMSO/WT HC103A fold change,gene MT2019 (Rv1967),0.1846
same,log2 Fold change,gene MT2019 (Rv1967),−2.437
same,Counts per million (CPM) WT_HC103A,gene MT2019 Rv1967,58.15 CPM and 26.3 CPM
same,WT DMSO/WT HC103A fold change,gene MT2020 Rv1968,0.199
same,log2 Fold change,gene MT2020 Rv1968,−2.329
same,Counts per million (CPM) WT_HC103A,gene MT2020 Rv1968,72.37 CPM and 31.88 CPM
same,WT DMSO/WT HC103A fold change,gene MT2021 (Rv1969),0.2997
same,log2 Fold change,gene MT2021 (Rv1969),−1.738
same,Counts per million (CPM) WT_HC103A,gene MT2021 Rv1969,29.34 CPM and 13.9 CPM
same,WT DMSO/WT HC103A fold change,gene MT2022 (Rv1970 lprM),0.2084
same,log2 Fold change,gene MT2022 (Rv1970 lprM),−2.263
same,Counts per million (CPM) WT_HC103A,gene MT2022 Rv1970 lprM,41.74 CPM and 24.09 CPM
same,WT DMSO/WT HC103A fold change,gene MT2023 (Rv1971),0.2079
same,log2 Fold change,gene MT2023 (Rv1971),−2.266
same,Counts per million (CPM) WT_HC103A,gene MT2023 Rv1971,53.39 CPM and 33.31 CPM
same,WT DMSO/WT HC103A fold change,gene MT2024 (Rv1972),0.3791
same,log2 Fold change,gene MT2024 (Rv1972),−1.399
same,Counts per million (CPM) WT_HC103A,gene MT2024 Rv1972,12.78 CPM and 9.286 CPM
same,WT DMSO/WT HC103A fold change,gene MT2048 Rv1992c ctpG,0.2903
same,log2 Fold change,gene MT2048 Rv1992c ctpG,−1.784
same,Counts per million (CPM) WT_HC103A,gene MT2048 Rv1992c ctpG,531.4 CPM and 326.8 CPM
same,WT DMSO/WT HC103A fold change,gene MT2052 (Rv1996),0.003741
same,log2 Fold change,gene MT2052 (Rv1996),−8.063
same,Counts per million (CPM) WT_HC103A,gene MT2052 Rv1996,107.1 CPM and 83.44 CPM
same,WT DMSO/WT HC103A fold change,gene MT2053 (Rv1997 ctpF),0.0183
same,log2 Fold change,gene MT2053 (Rv1997 ctpF),−5.772
same,Counts per million (CPM) WT_HC103A,gene MT2053 Rv1997 ctpF,57.85 CPM and 33.12 CPM
same,WT DMSO/WT HC103A fold change,gene MT2059 (Rv2003c),0.1063
same,log2 Fold change,gene MT2059 (Rv2003c),−3.234
same,Counts per million (CPM) WT_HC103A,gene MT2059 Rv2003c,93.54 CPM and 62.92 CPM
same,WT DMSO/WT HC103A fold change,gene MT2060 Rv2004c,0.05469
same,log2 Fold change,gene MT2060 Rv2004c,−3.95
same,Counts per million (CPM) WT_HC103A,gene MT2060 Rv2004c,219.7 CPM and 144.4 CPM
same,WT DMSO/WT HC103A fold change,gene MT2061 Rv2005c,0.04809
same,log2 Fold change,gene MT2061 Rv2005c,−4.378
same,Counts per million (CPM) WT_HC103A,gene MT2061 Rv2005c,138.4 CPM and 91.76 CPM
same,WT DMSO/WT HC103A fold change,gene MT2062 Rv2006 otsB,0.1408
same,log2 Fold change,gene MT2062 Rv2006 otsB,−2.828
same,Counts per million (CPM) WT_HC103A,gene MT2062 Rv2006 otsB,107.5 CPM and 97.41 CPM
same,WT DMSO/WT HC103A fold change,gene MT2063 Rv2007c fdxA,0.08678
same,log2 Fold change,gene MT2063 Rv2007c fdxA,−4.765
same,Counts per million (CPM) WT_HC103A,gene MT2063 Rv2007c fdxA,527.8 CPM and 132.3 CPM
same,WT DMSO/WT HC103A fold change,gene MT2086 (Rv2027c),0.2521
same,log2 Fold change,gene MT2086 (Rv2027c),−1.988
same,Counts per million (CPM) WT_HC103A,gene MT2086 Rv2027c,73.2 CPM and 62.79 CPM
same,WT DMSO/WT HC103A fold change,gene MT2087 Rv2028c,0.02878
same,log2 Fold change,gene MT2087 Rv2028c,−5.119
same,Counts per million (CPM) WT_HC103A,gene MT2087 Rv2028c,35.92 CPM and 8.702 CPM
same,WT DMSO/WT HC103A fold change,gene MT2088,0.01366
same,log2 Fold change,gene MT2088,−6.194
same,Counts per million (CPM) WT_HC103A,gene MT2088,84.09 CPM and 21.3 CPM
same,WT DMSO/WT HC103A fold change,gene MT2089 Rv2030c,0.01775
same,log2 Fold change,gene MT2089 Rv2030c,−5.816
same,Counts per million (CPM) WT_HC103A,gene MT2089 Rv2030c,451.1 CPM and 80.39 CPM
same,WT DMSO/WT HC103A fold change,gene MT2090,0.0164
same,log2 Fold change,gene MT2090,−5.93
same,WT DMSO/WT HC103A fold change,gene MT2091 Rv2032,0.01154
same,log2 Fold change,gene MT2091 Rv2032,−6.438
same,WT DMSO/WT HC103A fold change,gene MT2445.1,0.4105
same,log2 Fold change,gene MT2445.1,−1.285
same,WT DMSO/WT HC103A fold change,gene MT2556 Rv2483c,0.3592
same,log2 Fold change,gene MT2556 Rv2483c,−1.477
same,WT DMSO/WT HC103A fold change,gene MT2557 Rv2484c,0.3196
same,log2 Fold change,gene MT2557 Rv2484c,−1.646
same,WT DMSO/WT HC103A fold change,gene MT2574 Rv2499c,0.3086
same,log2 Fold change,gene MT2574 Rv2499c,−1.696
same,WT DMSO/WT HC103A fold change,gene MT2576,0.2991
same,log2 Fold change,gene MT2576,−1.741
same,WT DMSO/WT HC103A fold change,gene MT2577 Rv2502c accD1,0.3334
same,log2 Fold change,gene MT2577 Rv2502c accD1,−1.585
same,WT DMSO/WT HC103A fold change,gene MT2578 Rv2503c scoB,0.2841
same,log2 Fold change,gene MT2578 Rv2503c scoB,−1.815
same,WT DMSO/WT HC103A fold change,gene MT2579 Rv2504c scoA,0.281
same,log2 Fold change,gene MT2579 Rv2504c scoA,−1.831
same,WT DMSO/WT HC103A fold change,gene MT2698 Rv2623,0.006998
same,log2 Fold change,gene MT2698 Rv2623,−7.159
same,WT DMSO/WT HC103A fold change,gene MT2699 Rv2624c,0.01316
same,log2 Fold change,gene MT2699 Rv2624c,−6.247
same,WT DMSO/WT HC103A fold change,gene MT2700 Rv2625c,0.007921
same,log2 Fold change,gene MT2700 Rv2625c,−6.98
same,WT DMSO/WT HC103A fold change,gene MT2701 Rv2626c,0.00844
same,log2 Fold change,gene MT2701 Rv2626c,−6.888
same,WT DMSO/WT HC103A fold change,gene MT2702 Rv2627c,0.005338
same,log2 Fold change,gene MT2702 Rv2627c,−7.55
same,WT DMSO/WT HC103A fold change,gene MT2703 Rv2678,0.02894
same,log2 Fold change,gene MT2703 Rv2678,−5.111
same,WT DMSO/WT HC103A fold change,gene MT2704 Rv2629,0.05675
same,log2 Fold change,gene MT2704 Rv2629,−4.139
same,WT DMSO/WT HC103A fold change,gene MT2705 Rv2630,0.07365
same,log2 Fold change,gene MT2705 Rv2630,3.763
same,WT DMSO/WT HC103A fold change,gene MT2707 Rv2631,0.07456
same,log2 Fold change,gene MT2707 Rv2631,−3.745
same,WT DMSO/WT HC103A fold change,gene MT3171 Rv3086 adhD,0.4045
same,log2 Fold change,gene MT3171 Rv3086 adhD,−1.306
same,WT DMSO/WT HC103A fold change,gene MT3210,0.0164
same,log2 Fold change,gene MT3210,−5.93
same,WT DMSO/WT HC103A fold change,gene MT3212 Rv3127,0.01248
same,log2 Fold change,gene MT3212 Rv3127,−6.324
same,WT DMSO/WT HC103A fold change,gene MT3216 Rv3130c,0.005779
same,log2 Fold change,gene MT3216 Rv3130c,−7.435
same,WT DMSO/WT HC103A fold change,gene MT3217 Rv3131,0.004749
same,log2 Fold change,gene MT3217 Rv3131,−7.718
same,WT DMSO/WT HC103A fold change,gene MT3218 Rv3132c,0.04611
same,log2 Fold change,gene MT3218 Rv3132c,−4.439
same,WT DMSO/WT HC103A fold change,gene MT3219 Rv3133c,0.0294
same,log2 Fold change,gene MT3219 Rv3133c,−5.088
same,WT DMSO/WT HC103A fold change,gene MT3220 Rv3134c,0.02054
same,log2 Fold change,gene MT3220 Rv3134c,−5.606
same,WT DMSO/WT HC103A fold change,gene MT3427,0.4435
same,log2 Fold change,gene MT3427,−1.173
same,WT DMSO/WT HC103A fold change,gene MT3443 Rv3340 metC,0.3114
same,log2 Fold change,gene MT3443 Rv3340 metC,−1.683
same,WT DMSO/WT HC103A fold change,gene MT3444 Rv3341 metA,0.2535
same,log2 Fold change,gene MT3444 Rv3341 metA,−1.924
same,WT DMSO/WT HC103A fold change,gene MT3608 Rv3504 fadE26,0.3558
same,log2 Fold change,gene MT3608 Rv3504 fadE26,−1.491
same,WT DMSO/WT HC103A fold change,gene MT3634 Rv3531c,0.2978
same,log2 Fold change,gene MT3634 Rv3531c,−1.748
same,WT DMSO/WT HC103A fold change,gene MT3656 Rv3552,0.3116
same,log2 Fold change,gene MT3656 Rv3552,−1.582
same,WT DMSO/WT HC103A fold change,gene MT3716 Rv3614c,0.3057
same,log2 Fold change,gene MT3716 Rv3614c,−1.71
same,WT DMSO/WT HC103A fold change,gene MT3717 Rv3615c,0.3122
same,log2 Fold change,gene MT3717 Rv3615c,−1.679
same,WT DMSO/WT HC103A fold change,gene MT3718 Rv3616c,0.3166
same,log2 Fold change,gene MT3718 Rv3616c,−1.659
